Reference: PubChem BioAssay AID1745844 (Carcinogenic Potency Database (CPDB), 2022)
The source made the active and inactive calls. No rule for the calls is given here.

Tested on: rodent lifetime carcinogenesis bioassay, tumor incidence TD50
Test: carcinogenic potency in animals, long-term in vivo studies, CPDB compilation (AID 1745844)
[1] = mouse, strain Ha/ICR, females, i.p., site: lung, lesion: papillary tumor, dosed 64 weeks, study length 64 weeks

CN(C)CCOc1ccc(/C(=C(/CCCl)c2ccccc2)c2ccccc2)cc1
carcinogen call (rat, strain Charles River CD (Sprague-Dawley), females, by gavage, site: liver, lesion: hepatocellular adenoma, dosed 52 weeks, study length 52 weeks): negative (inactive) | carcinogen call (rat, strain Charles River CD (Sprague-Dawley), females, by gavage, site: liver, lesion: hepatocellular adenoma, dosed 52 weeks, study length 65 weeks): negative (inactive) | carcinogen call (rat, strain Charles River CD (Sprague-Dawley), females, by gavage, site: liver, lesion: hepatocellular carcinoma, dosed 52 weeks, study length 52 weeks): negative (inactive) | carcinogen call (rat, strain Charles River CD (Sprague-Dawley), females, by gavage, site: liver, lesion: hepatocellular carcinoma, dosed 52 weeks, study length 65 weeks): negative (inactive) | carcinogen call (rat, strain Sprague-Dawley, females, by gavage, site: liver, lesion: one or several types, types not named, dosed 52 weeks, study length 52 weeks): negative (inactive) | carcinogen call (rat, strain Sprague-Dawley, females, by gavage, site: liver, lesion: one or several types, types not named, dosed 52 weeks, study length 65 weeks): negative (inactive) | carcinogen call (rat, strain Sprague-Dawley, females, by gavage, site: liver, lesion: several types, types named in the paper, dosed 52 weeks, study length 52 weeks): negative (inactive) | carcinogen call (rat, strain Sprague-Dawley, females, by gavage, site: liver, lesion: several types, types named in the paper, dosed 52 weeks, study length 65 weeks): negative (inactive) | TD50 (rat, strain Sprague-Dawley, females, in feed, site: liver, lesion: hepatocellular adenoma, dosed 104 weeks, study length 104 weeks): 344 mg/kg/day (inactive) | carcinogen call (rat, strain Sprague-Dawley, females, in feed, site: liver, lesion: hepatocellular carcinoma, dosed 104 weeks, study length 104 weeks): negative (inactive) | carcinogen call (rat, strain Sprague-Dawley, females, in feed, site: mammary gland, lesion: one or several types, types not named, dosed 104 weeks, study length 104 weeks): negative (inactive) | carcinogen call (rat, strain Sprague-Dawley, females, in feed, site: pituitary gland, lesion: one or several types, types not named, dosed 104 weeks, study length 104 weeks): negative (inactive) | carcinogen call (rat, strain Sprague-Dawley, males, in feed, site: liver, lesion: hepatocellular adenoma, dosed 104 weeks, study length 104 weeks): negative (inactive) | TD50 (rat, strain Sprague-Dawley, males, in feed, site: liver, lesion: hepatocellular carcinoma, dosed 104 weeks, study length 104 weeks): 1040 mg/kg/day (inactive) | carcinogen call (rat, strain Sprague-Dawley, males, in feed, site: mammary gland, lesion: one or several types, types not named, dosed 104 weeks, study length 104 weeks): negative (inactive) | carcinogen call (rat, strain Sprague-Dawley, males, in feed, site: pituitary gland, lesion: one or several types, types not named, dosed 104 weeks, study length 104 weeks): negative (inactive) | carcinogen call (rat, strain Sprague-Dawley, males, in feed, site: testis, lesion: one or several types, types not named, dosed 104 weeks, study length 104 weeks): negative (inactive)

C/C=C1/C[C@@H](C)[C@@](C)(O)C(=O)OC/C2=C/CN(C)CC[C@@H](OC1=O)C2=O
TD50 (rat, strain ACI, males, i.p., site: liver, lesion: liver-cell adenoma, dosed 56 weeks, study length 92 weeks): 1.7 mg/kg/day

ClC(Cl)C(Cl)Cl
TD50 (mouse, strain B6C3F1, females, by gavage, site: any site (literature study), lesion: several types, types named in the paper, dosed 78 weeks, study length 92 weeks): 37.2 mg/kg/day | TD50 (mouse, strain B6C3F1, females, by gavage, site: liver, lesion: hepatocellular adenoma + hepatocellular carcinoma + neoplastic nodule, dosed 78 weeks, study length 92 weeks): 35.4 mg/kg/day | TD50 (mouse, strain B6C3F1, females, by gavage, site: liver, lesion: hepatocellular carcinoma, dosed 78 weeks, study length 91 weeks): 35.8 mg/kg/day | TD50 (mouse, strain B6C3F1, females, by gavage, site: liver, lesion: hepatocellular carcinoma, dosed 78 weeks, study length 92 weeks): 35.4 mg/kg/day | TD50 (mouse, strain B6C3F1, females, by gavage, site: lung, lesion: alveolar/bronchiolar adenoma + alveolar/bronchiolar carcinoma, dosed 78 weeks, study length 92 weeks): 1910 mg/kg/day | TD50 (mouse, strain B6C3F1, males, by gavage, site: any site (literature study), lesion: several types, types named in the paper, dosed 78 weeks, study length 92 weeks): 38.7 mg/kg/day | TD50 (mouse, strain B6C3F1, males, by gavage, site: liver, lesion: hepatocellular adenoma + hepatocellular carcinoma + neoplastic nodule, dosed 78 weeks, study length 92 weeks): 41.6 mg/kg/day | TD50 (mouse, strain B6C3F1, males, by gavage, site: liver, lesion: hepatocellular carcinoma, dosed 78 weeks, study length 91 weeks): 45.4 mg/kg/day | TD50 (mouse, strain B6C3F1, males, by gavage, site: liver, lesion: hepatocellular carcinoma, dosed 78 weeks, study length 92 weeks): 41.6 mg/kg/day | TD50 (mouse, strain B6C3F1, males, by gavage, site: lung, lesion: alveolar/bronchiolar adenoma + alveolar/bronchiolar carcinoma, dosed 78 weeks, study length 92 weeks): 895 mg/kg/day | TD50 (rat, strain Osborne-Mendel, females, by gavage, site: any site (literature study), lesion: several types, types named in the paper, dosed 77 weeks, study length 110 weeks): 84.2 mg/kg/day (inactive) | carcinogen call (rat, strain Osborne-Mendel, males, by gavage, site: any site (literature study), lesion: several types, types named in the paper, dosed 77 weeks, study length 110 weeks): negative (inactive) | TD50 (rat, strain Osborne-Mendel, males, by gavage, site: liver, lesion: hepatocellular adenoma + hepatocellular carcinoma + neoplastic nodule, dosed 77 weeks, study length 110 weeks): 624 mg/kg/day

CCOP(=O)(CC1CO1)OCC (stereo not drawn)
TD50 [1]: 12.4 mg/kg/day

CC(O)CCl (stereo not drawn)
carcinogen call (mouse, strain B6C3F1, females, in drinking water, site: any site (literature study), lesion: several types, types named in the paper, dosed 105 weeks, study length 105 weeks): negative (inactive) | TD50 (mouse, strain B6C3F1, females, in drinking water, site: liver, lesion: hepatocellular adenoma + hepatoblastoma + hepatocellular carcinoma, dosed 105 weeks, study length 105 weeks): 1040 mg/kg/day | carcinogen call (mouse, strain B6C3F1, males, in drinking water, site: any site (literature study), lesion: several types, types named in the paper, dosed 104 weeks, study length 104 weeks): negative (inactive) | carcinogen call (rat, strain Fischer 344, females, in drinking water, site: any site (literature study), lesion: several types, types named in the paper, dosed 104 weeks, study length 104 weeks): negative (inactive) | TD50 (rat, strain Fischer 344, females, in drinking water, site: liver, lesion: hepatocellular adenoma + hepatoblastoma + hepatocellular carcinoma, dosed 104 weeks, study length 104 weeks): 707 mg/kg/day | carcinogen call (rat, strain Fischer 344, males, in drinking water, site: any site (literature study), lesion: several types, types named in the paper, dosed 104 weeks, study length 104 weeks): negative (inactive) | TD50 (rat, strain Fischer 344, males, in drinking water, site: liver, lesion: hepatocellular adenoma + hepatoblastoma + hepatocellular carcinoma, dosed 104 weeks, study length 104 weeks): 427 mg/kg/day

CN(C)C(=O)Cl
TD50 (hamster, strain Syrian Golden, males, inhaled, site: nasal cavity, lesion: squamous-cell carcinoma, dosed 112 weeks, study length 112 weeks): 0.625 mg/kg/day | TD50 (mouse, strain Ha/ICR, females, i.p., site: abdomen, lesion: sarcoma, dosed 64 weeks, study length 64 weeks): 5.37 mg/kg/day | TD50 (mouse, strain Ha/ICR, females, i.p., site: abdomen, lesion: several types, types named in the paper, dosed 64 weeks, study length 64 weeks): 4.59 mg/kg/day | TD50 [1]: 6.65 mg/kg/day

CN(N=O)C(N)=O
TD50 (monkey, strain Cynomolgus [Macaca fascicularis], both sexes, in feed, site: any site (literature study), lesion: benign tumor, dosed 928 weeks, study length 1135 weeks): 19.1 mg/kg/day | TD50 (monkey, strain Cynomolgus [Macaca fascicularis], both sexes, in feed, site: any site (literature study), lesion: malignant tumor, dosed 928 weeks, study length 1135 weeks): 4 mg/kg/day | TD50 (monkey, strain Cynomolgus [Macaca fascicularis], both sexes, in feed, site: any site (literature study), lesion: several types, types named in the paper, dosed 928 weeks, study length 1135 weeks): 2.64 mg/kg/day | TD50 (monkey, strain Cynomolgus [Macaca fascicularis], both sexes, in feed, site: colon, lesion: leiomyosarcoma, dosed 928 weeks, study length 1135 weeks): 34.5 mg/kg/day | TD50 (monkey, strain Cynomolgus [Macaca fascicularis], both sexes, in feed, site: esophagus, lesion: several types, types named in the paper, dosed 928 weeks, study length 1135 weeks): 7.71 mg/kg/day | TD50 (monkey, strain Cynomolgus [Macaca fascicularis], both sexes, in feed, site: esophagus, lesion: squamous-cell carcinoma, dosed 928 weeks, study length 1135 weeks): 10.5 mg/kg/day | TD50 (monkey, strain Cynomolgus [Macaca fascicularis], both sexes, in feed, site: esophagus, lesion: squamous-cell papilloma, dosed 928 weeks, study length 1135 weeks): 29.2 mg/kg/day | TD50 (monkey, strain Cynomolgus [Macaca fascicularis], both sexes, in feed, site: heart, lesion: rhabdomyoblastoma, dosed 928 weeks, study length 1135 weeks): 66.3 mg/kg/day | TD50 (monkey, strain Cynomolgus [Macaca fascicularis], both sexes, in feed, site: oral cavity, lesion: several types, types named in the paper, dosed 928 weeks, study length 1135 weeks): 2.65 mg/kg/day | TD50 (monkey, strain Cynomolgus [Macaca fascicularis], both sexes, in feed, site: palate, soft, lesion: squamous-cell carcinoma, dosed 928 weeks, study length 1135 weeks): 7.95 mg/kg/day | TD50 (monkey, strain Cynomolgus [Macaca fascicularis], both sexes, in feed, site: pharynx, lesion: squamous-cell carcinoma, dosed 928 weeks, study length 1135 weeks): 82.2 mg/kg/day | TD50 (monkey, strain Cynomolgus [Macaca fascicularis], both sexes, in feed, site: skull, lesion: rhabdomyosarcoma, dosed 928 weeks, study length 1135 weeks): 23.9 mg/kg/day | TD50 (monkey, strain Cynomolgus [Macaca fascicularis], both sexes, in feed, site: stomach, lesion: adenocarcinoma, dosed 928 weeks, study length 1135 weeks): 66.3 mg/kg/day | TD50 (monkey, strain Cynomolgus [Macaca fascicularis], both sexes, in feed, site: tongue, lesion: squamous-cell papilloma, dosed 928 weeks, study length 1135 weeks): 7.95 mg/kg/day | TD50 (monkey, strain Cynomolgus [Macaca fascicularis], both sexes, in feed, site: upper gastrointestinal tract, lesion: squamous-cell carcinoma, dosed 928 weeks, study length 1135 weeks): 4.52 mg/kg/day | TD50 (monkey, strain Rhesus [Macaca mulatta], both sexes, in feed, site: any site (literature study), lesion: malignant tumor, dosed 928 weeks, study length 1139 weeks): 6.75 mg/kg/day | TD50 (monkey, strain Rhesus [Macaca mulatta], both sexes, in feed, site: cheek pouch, lesion: squamous-cell carcinoma, dosed 928 weeks, study length 1139 weeks): 95.6 mg/kg/day | TD50 (monkey, strain Rhesus [Macaca mulatta], both sexes, in feed, site: epiglottis, lesion: squamous-cell carcinoma, dosed 928 weeks, study length 1139 weeks): 42.8 mg/kg/day | TD50 (monkey, strain Rhesus [Macaca mulatta], both sexes, in feed, site: esophagus, lesion: squamous-cell carcinoma, dosed 928 weeks, study length 1139 weeks): 8.2 mg/kg/day | TD50 (monkey, strain Rhesus [Macaca mulatta], both sexes, in feed, site: gingiva, lesion: squamous-cell carcinoma, dosed 928 weeks, study length 1139 weeks): 62.6 mg/kg/day | TD50 (monkey, strain Rhesus [Macaca mulatta], both sexes, in feed, site: larynx, lesion: squamous-cell carcinoma, dosed 928 weeks, study length 1139 weeks): 95.6 mg/kg/day | TD50 (monkey, strain Rhesus [Macaca mulatta], both sexes, in feed, site: oral cavity, lesion: several types, types named in the paper, dosed 928 weeks, study length 1139 weeks): 15.7 mg/kg/day | TD50 (monkey, strain Rhesus [Macaca mulatta], both sexes, in feed, site: palate, soft, lesion: squamous-cell carcinoma, dosed 928 weeks, study length 1139 weeks): 102 mg/kg/day | TD50 (monkey, strain Rhesus [Macaca mulatta], both sexes, in feed, site: pharynx, lesion: squamous-cell carcinoma, dosed 928 weeks, study length 1139 weeks): 44.2 mg/kg/day | TD50 (monkey, strain Rhesus [Macaca mulatta], both sexes, in feed, site: stomach, lesion: adenocarcinoma, dosed 928 weeks, study length 1139 weeks): 42.8 mg/kg/day | TD50 (monkey, strain Rhesus [Macaca mulatta], both sexes, in feed, site: tongue, lesion: squamous-cell carcinoma, dosed 928 weeks, study length 1139 weeks): 72.9 mg/kg/day | TD50 (monkey, strain Rhesus [Macaca mulatta], both sexes, in feed, site: upper gastrointestinal tract, lesion: squamous-cell carcinoma, dosed 928 weeks, study length 1139 weeks): 7.18 mg/kg/day | TD50 (mouse, strain C3H (MTV+), males, in drinking water, site: liver, lesion: neoplastic nodule, dosed 30 weeks, study length 54 weeks): 2.53 mg/kg/day | TD50 (mouse, strain C3H (MTV+), males, in drinking water, site: lung, lesion: adenoma, dosed 30 weeks, study length 54 weeks): 0.794 mg/kg/day | TD50 (mouse, strain C3H (MTV+), males, in drinking water, site: spleen, lesion: hemangioendothelial sarcoma, dosed 30 weeks, study length 54 weeks): 1.23 mg/kg/day | TD50 (mouse, strain C3H (MTV+), males, in drinking water, site: stomach, glandular, lesion: adenocarcinoma, dosed 30 weeks, study length 54 weeks): 6.19 mg/kg/day | TD50 (rat, strain Fischer 344, males, by gavage, site: forestomach, lesion: one or several types, types not named, dosed 28 weeks, study length 104 weeks): 0.0927 mg/kg/day | TD50 (rat, strain Fischer 344, males, by gavage, site: liver, lesion: one or several types, types not named, dosed 28 weeks, study length 104 weeks): 11.6 mg/kg/day | TD50 (rat, strain Fischer 344, males, by gavage, site: lung, lesion: several types, types named in the paper, dosed 28 weeks, study length 104 weeks): 0.357 mg/kg/day | TD50 (rat, strain Fischer 344, males, by gavage, site: nervous system, lesion: several types, types named in the paper, dosed 28 weeks, study length 104 weeks): 2.03 mg/kg/day
